In patent publication US20200317660A1, “Quinazolinone Compound and Application Thereof” (LUOXIN PHARMACEUTICAL (SHANGHAI) CO., LTD., priority 2017, published 2020):

Tests used:
[1] = test system: phosphorylation of PI3K downstream protein Akt in MCF7 cells; test: In vitro test of cells activity: ELISA of Akt phosphorylation in MCF7 cells; type: cell-based; conditions: Homo sapiens, MCF7, 2 h, 2 h compound, insulin 10 μg/mL stimulation, pAkt ELISA, read-out: MCF7 Cell IC50
Summary of the method: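 MCF7 cells were serum-starved overnight, exposed to 10-point three-fold compound dilutions for 2 h at 37°C, then stimulated with 10 μg/mL insulin for 30 min. Lysates were assayed for phospho-Akt by ELISA.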

[2] = test system: human ovarian cancer SK-OV-3 cells; test: Subcutaneous xenograft tumor model of human ovarian cancer SK-OV-3 cells; type: in vivo, BALB/c nude mouse; conditions: SK-OV-3 xenograft, 30 mpk
Method: (2) BALB/c nude mouse subcutaneous xenograft tumor model of human ovarian cancer SK-OV-3 cells
Human ovarian cancer SK-OV-3 cells (ECACC-91091004) were subjected to in vitro monolayer culture, and the culture conditions were: McCoy's 5a medium (Gibco, 16600-082) with 10% fetal bovine serum and 100 U/mL penicillin and 100 µg/mL streptomycin, 37° C. and 5% CO2 incubator. The cells were passaged by digestion with trypsin-EDTA twice a week. When the cells saturation reached 80%-90%, the cells were collected, counted, and inoculated.
0.2 mL of 10×10^6 SK-OV-3 cells were subcutaneously inoculated into the right back of each nude mouse (PBS:Matrigel=1:1). When the average tumor volume reached 200 mm^3, 48 tumor-bearing mice were divided into 8 groups by stratified random method with 6 mice in each group, which were administered on the day of grouping.
Preparation of Test Substance
Vehicle group: 2.0 g of methyl cellulose was weighed in a 500 mL glass bottle, followed by addition of 399.2 mL of ddH2O and 0.8 mL of Tween 80. […]
The experimental index was to evaluate whether the tumor growth was inhibited, delayed or cured. The diameter of the tumor was measured with a vernier caliper twice a week. […]
The antitumor efficacy of the compound was evaluated by TGI (%) or relative tumor proliferation rate T/C (%). […]

Question: Which IC50 [1] does the source give for `CNC(=O)CCCn1cnc2ccc(-c3cnc(OC)c(NS(=O)(=O)c4ccc(F)cc4Cl)c3)cc2c1=O` [WX198] here?
Answer: Its IC50 is 9.43 nM.

Question: What about the TGI % [2] of the same compound?
Answer: Its TGI % is 62.6%.
